Data from the supplement of paper PMC10883282.

Tests used:
Experiment in all cases: relative viability vs DMSO control (72 h) (fraction); higher = more viable cells
HT1080 = system: HT1080
In short: (§1)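 Relative viability was measured with ATPLite and expressed as percent growth, averaged across up to triplicate wells. Sarcoma cell lines had been seeded in 384-well plates to reach 80–90% confluence, dosed after 24 h, and incubated 72 h at 37 °C, 5% CO2. All data were rescaled on a scale where 1 is full and 0 is none.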

MES-SA = system: MES-SA
In short: as §1

SW684 = system: SW684
In short: as §1

KHOS-NP = system: KHOS-NP
In short: as §1

VA-ES-BJ = system: VA-ES-BJ
In short: as §1

SK-LMS-1 = system: SK-LMS-1
In short: as §1

SW872 = system: SW872
In short: as §1

SK-ES-1 = system: SK-ES-1
In short: as §1

G401 = system: G401
In short: as §1

SW1353 = system: SW1353
In short: as §1

RD-ES = system: RD-ES
In short: as §1

RD = system: RD
In short: as §1

Cc1cn(-c2cc(NC(=O)c3ccc(C)c(Nc4nccc(-c5cnccn5)n4)c3)cc(C(F)(F)F)c2)cn1 [Radotinib]
Details	relative viability
G401, 0.00017 µM	1.02
G401, 0.00051 µM	1.06
G401, 0.00152 µM	1.07
G401, 0.00457 µM	1.1
G401, 0.01372 µM	1.12
G401, 0.04115 µM	1.11
G401, 0.1235 µM	1.1
G401, 0.3704 µM	1.08
G401, 1.111 µM	1.04
G401, 3.333 µM	0.984
G401, 10 µM	0.931
HT1080, 0.00017 µM	1.07
HT1080, 0.00051 µM	1.06
HT1080, 0.00152 µM	1.07
HT1080, 0.00457 µM	1.07
HT1080, 0.01372 µM	1.07
HT1080, 0.04115 µM	1.06
HT1080, 0.1235 µM	1.07
HT1080, 0.3704 µM	1.09
HT1080, 1.111 µM	1.03
HT1080, 3.333 µM	1.12
HT1080, 10 µM	1.06
KHOS-NP, 0.00017 µM	1.12
KHOS-NP, 0.00051 µM	1.09
KHOS-NP, 0.00152 µM	1.11
KHOS-NP, 0.00457 µM	1.11
KHOS-NP, 0.01372 µM	1.12
KHOS-NP, 0.04115 µM	1.12
KHOS-NP, 0.1235 µM	1.11
KHOS-NP, 0.3704 µM	1.1
KHOS-NP, 1.111 µM	1.1
KHOS-NP, 3.333 µM	1.09
KHOS-NP, 10 µM	1.07
MES-SA, 0.00017 µM	0.935
MES-SA, 0.00051 µM	0.938
MES-SA, 0.00152 µM	0.935
MES-SA, 0.00457 µM	0.941
MES-SA, 0.01372 µM	0.958
MES-SA, 0.04115 µM	0.954
MES-SA, 0.1235 µM	0.981
MES-SA, 0.3704 µM	0.99
MES-SA, 1.111 µM	1.01
MES-SA, 3.333 µM	1.01
MES-SA, 10 µM	1.03
RD, 0.00017 µM	1.11
RD, 0.00051 µM	1.1
RD, 0.00152 µM	1.12
RD, 0.00457 µM	1.12
RD, 0.01372 µM	1.12
RD, 0.04115 µM	1.11
RD, 0.1235 µM	1.13
RD, 0.3704 µM	1.12
RD, 1.111 µM	1.1
RD, 3.333 µM	1.07
RD, 10 µM	1.04
RD-ES, 0.00017 µM	0.982
RD-ES, 0.00051 µM	1.02
RD-ES, 0.00152 µM	1.01
RD-ES, 0.00457 µM	1.02
RD-ES, 0.01372 µM	1.005
RD-ES, 0.04115 µM	1.01
RD-ES, 0.1235 µM	1.03
RD-ES, 0.3704 µM	1.01
RD-ES, 1.111 µM	1
RD-ES, 3.333 µM	0.991
RD-ES, 10 µM	1.01
SK-ES-1, 0.00017 µM	1.02
SK-ES-1, 0.00051 µM	1.01
SK-ES-1, 0.00152 µM	1.047
SK-ES-1, 0.00457 µM	1.04
SK-ES-1, 0.01372 µM	1.07
SK-ES-1, 0.04115 µM	1.07
SK-ES-1, 0.1235 µM	1.05
SK-ES-1, 0.3704 µM	1.03
SK-ES-1, 1.111 µM	1.02
SK-ES-1, 3.333 µM	1.01
SK-ES-1, 10 µM	1.074
SK-LMS-1, 0.00017 µM	1.05
SK-LMS-1, 0.00051 µM	1.07
SK-LMS-1, 0.00152 µM	1.08
SK-LMS-1, 0.00457 µM	1.05
SK-LMS-1, 0.01372 µM	1.08
SK-LMS-1, 0.04115 µM	1.14
SK-LMS-1, 0.1235 µM	1.14
SK-LMS-1, 0.3704 µM	1.19
SK-LMS-1, 1.111 µM	1.11
SK-LMS-1, 3.333 µM	1.18
SK-LMS-1, 10 µM	1.12
SW684, 0.00017 µM	1.13
SW684, 0.00051 µM	1.17
SW684, 0.00152 µM	1.2
SW684, 0.00457 µM	1.21
SW684, 0.01372 µM	1.17
SW684, 0.04115 µM	1.19
SW684, 0.1235 µM	1.26
SW684, 0.3704 µM	1.33
SW684, 1.111 µM	1.38
SW684, 3.333 µM	1.24
SW684, 10 µM	1.22
SW872, 0.00017 µM	1.06
SW872, 0.00051 µM	1.07
SW872, 0.00152 µM	1.07
SW872, 0.00457 µM	1.07
SW872, 0.01372 µM	1.07
SW872, 0.04115 µM	1.07
SW872, 0.1235 µM	1.08
SW872, 0.3704 µM	1.06
SW872, 1.111 µM	0.98
SW872, 3.333 µM	0.915
SW872, 10 µM	0.889
SW1353, 0.00017 µM	1.02
SW1353, 0.00051 µM	1.023
SW1353, 0.00152 µM	1.06
SW1353, 0.00457 µM	1.06
SW1353, 0.01372 µM	1.06
SW1353, 0.04115 µM	1.1
SW1353, 0.1235 µM	1.19
SW1353, 0.3704 µM	1.21
SW1353, 1.111 µM	1.25
SW1353, 3.333 µM	1.22
SW1353, 10 µM	1.17
VA-ES-BJ, 0.00017 µM	1.05
VA-ES-BJ, 0.00051 µM	1.08
VA-ES-BJ, 0.00152 µM	1.05
VA-ES-BJ, 0.00457 µM	1.06
VA-ES-BJ, 0.01372 µM	1.08
VA-ES-BJ, 0.04115 µM	1.05
VA-ES-BJ, 0.1235 µM	1.11
VA-ES-BJ, 0.3704 µM	1.17
VA-ES-BJ, 1.111 µM	1.18
VA-ES-BJ, 3.333 µM	1.21
VA-ES-BJ, 10 µM	1.21

CO[C@H]1C[C@@H]2CC[C@@H](C)[C@@](O)(O2)C(=O)C(=O)N2CCCC[C@H]2C(=O)O[C@H]([C@H](C)C[C@@H]2CC[C@@H](O)[C@H](OC)C2)CC(=O)[C@H](C)/C=C(\C)[C@@H](O)[C@@H](OC)C(=O)[C@H](C)C[C@H](C)/C=C/C=C/C=C/1C [Rapamycin]
Details	relative viability
G401, 0.00017 µM	0.901
G401, 0.00051 µM	0.856
G401, 0.00152 µM	0.815
G401, 0.00457 µM	0.784
G401, 0.01372 µM	0.759
G401, 0.04115 µM	0.717
G401, 0.1235 µM	0.687
G401, 0.3704 µM	0.676
G401, 1.111 µM	0.634
G401, 3.333 µM	0.613
G401, 10 µM	0.589
HT1080, 0.00017 µM	1.04
HT1080, 0.00051 µM	1.03
HT1080, 0.00152 µM	1.02
HT1080, 0.00457 µM	0.97
HT1080, 0.01372 µM	0.966
HT1080, 0.04115 µM	0.972
HT1080, 0.1235 µM	0.932
HT1080, 0.3704 µM	0.917
HT1080, 1.111 µM	0.905
HT1080, 3.333 µM	0.869
HT1080, 10 µM	0.851
KHOS-NP, 0.00017 µM	1.04
KHOS-NP, 0.00051 µM	1.05
KHOS-NP, 0.00152 µM	1.07
KHOS-NP, 0.00457 µM	1.07
KHOS-NP, 0.01372 µM	1.06
KHOS-NP, 0.04115 µM	1.06
KHOS-NP, 0.1235 µM	1.03
KHOS-NP, 0.3704 µM	1.04
KHOS-NP, 1.111 µM	1.05
KHOS-NP, 3.333 µM	1.02
KHOS-NP, 10 µM	0.882
MES-SA, 0.00017 µM	0.876
MES-SA, 0.00051 µM	0.648
MES-SA, 0.00152 µM	0.469
MES-SA, 0.00457 µM	0.424
MES-SA, 0.01372 µM	0.384
MES-SA, 0.04115 µM	0.362
MES-SA, 0.1235 µM	0.363
MES-SA, 0.3704 µM	0.353
MES-SA, 1.111 µM	0.352
MES-SA, 3.333 µM	0.34
MES-SA, 10 µM	0.349
RD, 0.00017 µM	0.95
RD, 0.00051 µM	0.87
RD, 0.00152 µM	0.808
RD, 0.00457 µM	0.702
RD, 0.01372 µM	0.629
RD, 0.04115 µM	0.579
RD, 0.1235 µM	0.592
RD, 0.3704 µM	0.573
RD, 1.111 µM	0.588
RD, 3.333 µM	0.605
RD, 10 µM	0.568
RD-ES, 0.00017 µM	0.966
RD-ES, 0.00051 µM	0.962
RD-ES, 0.00152 µM	0.868
RD-ES, 0.00457 µM	0.833
RD-ES, 0.01372 µM	0.77
RD-ES, 0.04115 µM	0.712
RD-ES, 0.1235 µM	0.665
RD-ES, 0.3704 µM	0.677
RD-ES, 1.111 µM	0.687
RD-ES, 3.333 µM	0.647
RD-ES, 10 µM	0.611
SK-ES-1, 0.00017 µM	0.953
SK-ES-1, 0.00051 µM	0.866
SK-ES-1, 0.00152 µM	0.737
SK-ES-1, 0.00457 µM	0.63
SK-ES-1, 0.01372 µM	0.564
SK-ES-1, 0.04115 µM	0.554
SK-ES-1, 0.1235 µM	0.51
SK-ES-1, 0.3704 µM	0.512
SK-ES-1, 1.111 µM	0.5
SK-ES-1, 3.333 µM	0.482
SK-ES-1, 10 µM	0.457
SK-LMS-1, 0.00017 µM	0.924
SK-LMS-1, 0.00051 µM	0.758
SK-LMS-1, 0.00152 µM	0.697
SK-LMS-1, 0.00457 µM	0.621
SK-LMS-1, 0.01372 µM	0.58
SK-LMS-1, 0.04115 µM	0.567
SK-LMS-1, 0.1235 µM	0.551
SK-LMS-1, 0.3704 µM	0.526
SK-LMS-1, 1.111 µM	0.554
SK-LMS-1, 3.333 µM	0.522
SK-LMS-1, 10 µM	0.5
SW684, 0.00017 µM	0.9947
SW684, 0.00051 µM	0.936
SW684, 0.00152 µM	0.812
SW684, 0.00457 µM	0.743
SW684, 0.01372 µM	0.678
SW684, 0.04115 µM	0.681
SW684, 0.1235 µM	0.718
SW684, 0.3704 µM	0.718
SW684, 1.111 µM	0.75
SW684, 3.333 µM	0.752
SW684, 10 µM	0.682
SW872, 0.00017 µM	0.867
SW872, 0.00051 µM	0.787
SW872, 0.00152 µM	0.729
SW872, 0.00457 µM	0.659
SW872, 0.01372 µM	0.602
SW872, 0.04115 µM	0.565
SW872, 0.1235 µM	0.543
SW872, 0.3704 µM	0.548
SW872, 1.111 µM	0.561
SW872, 3.333 µM	0.567
SW872, 10 µM	0.553
SW1353, 0.00017 µM	0.91
SW1353, 0.00051 µM	0.851
SW1353, 0.00152 µM	0.825
SW1353, 0.00457 µM	0.796
SW1353, 0.01372 µM	0.795
SW1353, 0.04115 µM	0.782
SW1353, 0.1235 µM	0.747
SW1353, 0.3704 µM	0.714
SW1353, 1.111 µM	0.7
SW1353, 3.333 µM	0.674
SW1353, 10 µM	0.683
VA-ES-BJ, 0.00017 µM	0.942
VA-ES-BJ, 0.00051 µM	0.814
VA-ES-BJ, 0.00152 µM	0.723
VA-ES-BJ, 0.00457 µM	0.584
VA-ES-BJ, 0.01372 µM	0.476
VA-ES-BJ, 0.04115 µM	0.451
VA-ES-BJ, 0.1235 µM	0.435
VA-ES-BJ, 0.3704 µM	0.427
VA-ES-BJ, 1.111 µM	0.444
VA-ES-BJ, 3.333 µM	0.446
VA-ES-BJ, 10 µM	0.43
